Test results reported in BindingDB's records for patent US20240360134 (Actelion Pharmaceuticals, 2024).

Tests used:
[1] = target: T1, Platelet-derived growth factor receptor beta (Homo sapiens, UniProt P09619); experiment: PDGFRβ LanthaScreen Assay
Experimental: Dispensing inhibitors: Using Echo, dispense 40 nL/well (or less) compound serial dilutions in DMSO onto the assay plate.Step 2. Dispensing Kinase-Tracer solution: Add 4 μL/well Kinase-Tracer solution. Seal the plate with optically transparent plate seal. […] Detection: Read TR-FRET signals after 18 hours incubation at room temperature.III. […] IC50 values are determined from a 4-parameter fit, using the following equation: Y=Bottom+(Top−Bottom)/(1+10((Log IC50−X)*Hill slope)), where X=log10 of the compound concentration; top can be defined by PC; bottom defined by NC.

[2] = target: T1, Platelet-derived growth factor receptor beta; experiment: PDGFRβ HTRF Assay
Experimental: PDGFRβ E+I pre-incubation: Add 2 μL 2× protein solution to columns 1-24 using the Multidrop Combi. Centrifuge at 1000 rpm for 1 min. Incubate 30 min at RTStep 2. Enzymatic reaction: Add 2 μL substrate solution to columns 1-24 to initiate the reaction using the Multidrop Combi; cover/seal the assay plate to reduce evaporation. Centrifuge at 1000 rpm for 1 min. […] Quench/Detection: Add 2 μl 3× quench/detection solution to columns 1-24 using the Multidrop Combi; cover/seal the plate. Centrifuge 1 min 1000 rpm. Incubate at RT for 60 min.

[3] = target: Vascular endothelial growth factor receptor 2 (Homo sapiens, UniProt P35968); experiment: VEGFR ADP GLO Assay
Experimental: Step 1. Dispensing inhibitors/controls: Using Echo, dispense 10 nL/well compound serial dilutions in DMSO to columns 1-22 (in 384-well plates) or columns 1-44 (in 1536-well plates). Dilution series=11 pt, 3-fold dilutions. The top compound concentration in the source plate is […]. The top compound concentration in the assay plate is 10 uM. Using Echo, dispense 10 nl/well DMSO to column 23 (in 384-well plates) or columns 45-47 (in 1536-well plates). These wells will serve as negative control wells Using Echo, dispense 10 nl/well 400 uM TAK-593 in DMSO to column 24 (in 384-well plates) or column 48 (in 1536-well plates). The final concentration of TAK-593 in the assay should be 1 uM. These wells will serve as positive control wells.Step 2. Pre-incubation of inhibitors with kinase: Add 2 μL/well 2× kinase solution. Centrifuge at 1000 rpm for 1 min. Incubate at room temperature for 30 min.Step 3. Kinase cascade reaction: Add 2 μL/well 2× substrate/ATP solution to initiate kinase reactions. Centrifuge at 1000 rpm for 1 min. Incubate at room temperature for 180 min.Final concentrations of components in the assay:[VEGFR2]=5 nM;[ATP]=1.2 mM;[Srctide]=1 mg/mL;[DMSO]≤1%.Step 4. Quench: Add 2 uL/well ADP Glo Reagent+0.05% CHAPS. Centrifuge at 1000 rpm for 1 min; Incubate at room temperature for one hour.Step 5. Detection: Add 2 uL/well Kinase Detection Reagent+0.05% CHAPS. Centrifuge at 1000 rpm for 1 min; Incubate at room temperature for 1 hour; Read Luminescence on a plate reader.

T1 sequence (P09619 whole entry): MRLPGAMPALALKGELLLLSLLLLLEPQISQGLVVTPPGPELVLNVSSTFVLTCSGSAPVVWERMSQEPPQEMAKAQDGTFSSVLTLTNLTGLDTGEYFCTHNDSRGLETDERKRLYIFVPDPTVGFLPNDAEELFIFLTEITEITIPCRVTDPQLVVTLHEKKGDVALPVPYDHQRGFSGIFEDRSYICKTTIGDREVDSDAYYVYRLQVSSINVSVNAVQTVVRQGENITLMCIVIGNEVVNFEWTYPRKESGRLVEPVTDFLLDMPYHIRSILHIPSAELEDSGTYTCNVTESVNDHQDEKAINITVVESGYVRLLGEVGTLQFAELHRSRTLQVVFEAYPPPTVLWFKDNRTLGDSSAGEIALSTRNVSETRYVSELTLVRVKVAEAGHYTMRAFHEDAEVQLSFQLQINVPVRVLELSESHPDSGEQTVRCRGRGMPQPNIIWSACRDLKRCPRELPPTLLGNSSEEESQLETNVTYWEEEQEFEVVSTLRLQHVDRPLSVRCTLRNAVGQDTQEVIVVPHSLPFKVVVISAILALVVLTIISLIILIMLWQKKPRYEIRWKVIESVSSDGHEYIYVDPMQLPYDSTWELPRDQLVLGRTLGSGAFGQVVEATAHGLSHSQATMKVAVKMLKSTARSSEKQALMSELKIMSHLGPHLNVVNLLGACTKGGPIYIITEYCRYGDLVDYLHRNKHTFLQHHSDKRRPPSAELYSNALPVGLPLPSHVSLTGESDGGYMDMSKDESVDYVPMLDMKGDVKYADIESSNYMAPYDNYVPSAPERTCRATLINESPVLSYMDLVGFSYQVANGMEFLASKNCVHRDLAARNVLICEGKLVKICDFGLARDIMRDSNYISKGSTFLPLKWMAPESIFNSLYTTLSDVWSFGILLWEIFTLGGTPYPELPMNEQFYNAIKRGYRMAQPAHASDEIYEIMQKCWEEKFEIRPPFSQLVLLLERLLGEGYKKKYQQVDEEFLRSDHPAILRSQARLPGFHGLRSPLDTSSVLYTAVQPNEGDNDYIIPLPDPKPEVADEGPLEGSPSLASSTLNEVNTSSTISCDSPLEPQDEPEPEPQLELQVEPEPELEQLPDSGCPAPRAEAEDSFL
Chain of Vascular endothelial growth factor receptor 2 (P35968 whole entry): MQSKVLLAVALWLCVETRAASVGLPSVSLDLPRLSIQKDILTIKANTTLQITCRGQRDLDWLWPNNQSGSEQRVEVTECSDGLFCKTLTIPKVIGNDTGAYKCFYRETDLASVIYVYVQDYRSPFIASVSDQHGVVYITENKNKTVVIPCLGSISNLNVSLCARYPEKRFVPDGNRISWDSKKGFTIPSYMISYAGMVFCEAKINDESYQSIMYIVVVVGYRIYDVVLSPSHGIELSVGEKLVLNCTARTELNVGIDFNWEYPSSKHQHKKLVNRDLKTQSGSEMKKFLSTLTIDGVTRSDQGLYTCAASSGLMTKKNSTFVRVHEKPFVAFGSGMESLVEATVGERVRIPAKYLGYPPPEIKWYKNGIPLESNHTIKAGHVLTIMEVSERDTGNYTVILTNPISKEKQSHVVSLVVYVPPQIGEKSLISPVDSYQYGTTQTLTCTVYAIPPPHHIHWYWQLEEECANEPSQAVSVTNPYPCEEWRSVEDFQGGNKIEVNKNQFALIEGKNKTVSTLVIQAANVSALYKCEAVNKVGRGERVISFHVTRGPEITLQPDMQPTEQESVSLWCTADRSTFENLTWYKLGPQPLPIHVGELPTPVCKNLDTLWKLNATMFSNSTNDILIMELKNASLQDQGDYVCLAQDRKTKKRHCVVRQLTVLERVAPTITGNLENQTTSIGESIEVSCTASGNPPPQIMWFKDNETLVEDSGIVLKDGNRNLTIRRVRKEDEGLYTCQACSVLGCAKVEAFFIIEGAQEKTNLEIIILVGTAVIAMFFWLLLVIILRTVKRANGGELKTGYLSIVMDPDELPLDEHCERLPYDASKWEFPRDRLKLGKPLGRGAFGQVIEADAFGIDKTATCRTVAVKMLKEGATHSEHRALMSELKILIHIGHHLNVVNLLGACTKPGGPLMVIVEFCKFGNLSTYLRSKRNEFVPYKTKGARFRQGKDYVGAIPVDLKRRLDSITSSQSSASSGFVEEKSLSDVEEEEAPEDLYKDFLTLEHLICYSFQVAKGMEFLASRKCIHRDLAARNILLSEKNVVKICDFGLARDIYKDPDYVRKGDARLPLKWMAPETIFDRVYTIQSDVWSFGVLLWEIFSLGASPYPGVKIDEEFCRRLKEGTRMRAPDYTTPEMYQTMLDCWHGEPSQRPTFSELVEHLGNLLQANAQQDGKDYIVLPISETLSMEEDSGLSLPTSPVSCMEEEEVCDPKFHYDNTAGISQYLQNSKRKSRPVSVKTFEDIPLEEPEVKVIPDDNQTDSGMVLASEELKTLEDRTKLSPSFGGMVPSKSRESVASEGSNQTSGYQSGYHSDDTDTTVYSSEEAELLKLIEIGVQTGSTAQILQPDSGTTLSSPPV

Structure (SMILES)	IC50 [1]	IC50 [2]	IC50 [3]
Cc1ncc(NC(=O)CN2CCC(F)(F)C2)cc1Nc1nn(C)c2nc(Nc3cnn(C)c3)ncc12 [US20240360134, Example 75]	2.1 nM	0.35 nM	847 nM
COC(=O)Cc1cccc(Nc2ncc3c(Nc4cc(C(=O)NCCN5CCCC5(C)C)cnc4C)nn(C)c3n2)c1 [US20240360134, Example 43]	4.1 nM	0.54 nM	2080 nM
Cc1ncc(NC(=O)CN2C[C@@H](C)O[C@@H](C)C2)cc1Nc1nn(C)c2nc(Nc3cnn(C)c3)ncc12 [US20240360134, Example 78]	3.7 nM	0.59 nM	3930 nM
Cc1ncc(NC(=O)CN2CCC3(CC3)C2)cc1Nc1nn(C)c2nc(Nc3cnn(C)c3)ncc12 [US20240360134, Example 74]	1.6 nM	0.23 nM	5070 nM
Cc1ncc(NC(=O)CN(CCO)C2CCCC2)cc1Nc1nn(C)c2nc(Nc3cnn(C)c3)ncc12 [US20240360134, Example 79]	2.5 nM	–	5390 nM
COC(=O)C(C)(C)c1cccc(Nc2ncc3c(Nc4cc(C(=O)NCCN5CCCC5(C)C)cnc4C)nn(C)c3n2)c1 [US20240360134, Example 46]	4.9 nM	0.81 nM	3580 nM
Cc1ncc(NC(=O)CN(CCCO)C2CCCC2)cc1Nc1nn(C)c2nc(Nc3cnn(C)c3)ncc12 [US20240360134, Example 80]	3.2 nM	0.5 nM	> 7500 nM
Cc1ncc(NC(=O)CN2CCC[C@@H]2C)cc1Nc1nn(C)c2nc(Nc3cnn(C)c3)ncc12 [US20240360134, Example 71]	2.1 nM	0.25 nM	> 7500 nM
Cc1ncc(NC(=O)CN2CCC(F)(F)CC2)cc1Nc1nn(C)c2nc(Nc3cnn(C)c3)ncc12 [US20240360134, Example 72]	1.7 nM	0.27 nM	1100 nM
Cc1ncc(NC(=O)CN2CC(F)(F)C2)cc1Nc1nn(C)c2nc(Nc3cnn(C)c3)ncc12 [US20240360134, Example 76]	2.6 nM	0.42 nM	3600 nM
Cc1ncc(NC(=O)CN2C[C@H](C)O[C@@H](C)C2)cc1Nc1nn(C)c2nc(Nc3cnn(C)c3)ncc12 (relative stereo) [US20240360134, Example 73]	2.6 nM	0.5 nM	4570 nM
